Source: ChEMBL document CHEMBL1806382, “Special ergolines efficiently inhibit the chemokine receptor CXCR3 in blood” (Bioorg Med Chem Lett, 2011)

Experiments:
[1] = target: T1, C-X-C chemokine receptor type 3 (Homo sapiens, UniProt P49682); test: Displacement of radiolabeled CXCL11 from human CXCR3 expressed in CHO cells by scintillation proximity assay; type: cell-based
T1 sequence (P49682 whole entry): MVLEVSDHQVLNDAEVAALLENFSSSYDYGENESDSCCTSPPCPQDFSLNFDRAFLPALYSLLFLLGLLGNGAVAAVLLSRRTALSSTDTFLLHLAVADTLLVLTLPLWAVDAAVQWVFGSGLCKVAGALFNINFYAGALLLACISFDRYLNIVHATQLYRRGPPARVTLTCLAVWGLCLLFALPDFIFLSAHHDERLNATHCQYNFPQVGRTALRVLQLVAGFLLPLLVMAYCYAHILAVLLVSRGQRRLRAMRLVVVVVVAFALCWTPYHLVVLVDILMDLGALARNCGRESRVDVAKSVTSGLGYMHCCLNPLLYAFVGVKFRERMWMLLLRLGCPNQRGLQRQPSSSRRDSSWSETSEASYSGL

[2] = target: T1, C-X-C chemokine receptor type 3; test: Antagonist activity at human CXCR3 expressed in mouse L1.2 cells assessed as inhibition of ITAC-induced calcium mobilization by FLIPR assay; type: functional, cell-based
[3] = target: T2, C-X-C chemokine receptor type 3 (Mus musculus, UniProt O88410); test: Antagonist activity at mouse CXCR3 expressed in mouse L1.2 cells assessed as inhibition of ITAC-induced calcium mobilization by FLIPR assay; type: functional, cell-based
T2 sequence (O88410 whole entry): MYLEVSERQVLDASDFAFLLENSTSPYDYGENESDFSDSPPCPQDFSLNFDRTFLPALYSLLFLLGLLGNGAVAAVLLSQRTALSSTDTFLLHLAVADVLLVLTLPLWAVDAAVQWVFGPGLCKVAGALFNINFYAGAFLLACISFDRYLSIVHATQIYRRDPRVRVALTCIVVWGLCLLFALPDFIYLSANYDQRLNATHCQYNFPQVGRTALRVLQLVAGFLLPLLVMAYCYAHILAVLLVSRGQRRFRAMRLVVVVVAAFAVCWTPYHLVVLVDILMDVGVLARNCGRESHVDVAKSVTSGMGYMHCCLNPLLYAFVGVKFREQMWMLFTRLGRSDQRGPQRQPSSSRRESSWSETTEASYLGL

O=C([C@@H]1C=C2c3cccc4[nH]cc(c34)C[C@H]2N(C(=O)NCc2ccco2)C1)N1CCCC1
IC50 [1]: 2600 nM | IC50 [2]: 10000 nM

CN(CCO)C(=O)[C@@H]1C=C2c3cccc4[nH]cc(c34)C[C@H]2N(C(=O)Nc2ccccc2)C1
IC50 [1]: 66 nM | IC50 [2]: 12 nM | IC50 [3]: 9 nM

O=C([C@@H]1C=C2c3cccc4[nH]cc(c34)C[C@H]2N(C(=O)Nc2ccccc2)C1)N1CC[C@@H](O)C1
IC50 [1]: 61 nM | IC50 [2]: 22 nM

O=C([C@@H]1C=C2c3cccc4[nH]cc(c34)C[C@H]2N(C(=O)NC2CCCC2)C1)N1CCCC1
IC50 [1]: 160 nM | IC50 [2]: 73 nM | IC50 [3]: 81 nM

COc1cccc(NC(=O)N2C[C@H](C(=O)N3CCCC3)C=C3c4cccc5[nH]cc(c45)C[C@H]32)c1
IC50 [1]: 278 nM | IC50 [2]: 27 nM | IC50 [3]: 74 nM

O=C([C@@H]1C=C2c3cccc4[nH]cc(c34)C[C@H]2N(C(=O)Nc2ccccc2)C1)N1CCC1
IC50 [3]: 14 nM

CNC(=O)N1C[C@H](C(=O)N2CCCC2)C=C2c3cccc4[nH]cc(c34)C[C@H]21
IC50 [1]: > 10000 nM | IC50 [2]: > 10000 nM

COCCN(CCOC)C(=O)[C@@H]1C=C2c3cccc4[nH]cc(c34)C[C@H]2N(C(=O)Nc2ccccc2)C1
IC50 [1]: 305 nM | IC50 [2]: 187 nM | IC50 [3]: 437 nM

O=C([C@@H]1C=C2c3cccc4[nH]cc(c34)C[C@H]2N(C(=O)Nc2ccccc2)C1)N1CCS(=O)(=O)CC1
IC50 [1]: 400 nM | IC50 [2]: 67 nM | IC50 [3]: 534 nM

CN(C)Cc1ccc(NC(=O)N2C[C@H](C(=O)N3CCCC3)C=C3c4cccc5[nH]cc(c45)C[C@H]32)cc1
IC50 [2]: 5400 nM

O=C([C@@H]1C=C2c3cccc4[nH]cc(c34)C[C@H]2N(C(=O)Nc2ccccc2)C1)N1CCCCCC1
IC50 [1]: 81 nM | IC50 [2]: 14 nM | IC50 [3]: 13 nM

CN(C)CCCNC(=O)N1C[C@H](C(=O)N2CCCC2)C=C2c3cccc4[nH]cc(c34)C[C@H]21
IC50 [2]: > 10000 nM

O=C([C@@H]1C=C2c3cccc4[nH]cc(c34)C[C@H]2N(C(=O)Nc2ccccc2F)C1)N1CCCC1
IC50 [3]: 16 nM

O=C([C@@H]1C=C2c3cccc4[nH]cc(c34)C[C@H]2N(C(=O)Nc2ccccc2)C1)N1CC[C@@H](O)[C@@H](O)C1
IC50 [1]: 50 nM | IC50 [2]: 200 nM | IC50 [3]: 40 nM

CC(=O)N1CCN(C(=O)[C@@H]2C=C3c4cccc5[nH]cc(c45)C[C@H]3N(C(=O)Nc3ccccc3)C2)CC1
IC50 [1]: 825 nM | IC50 [2]: 286 nM

CCNC(=O)[C@@H]1C=C2c3cccc4[nH]cc(c34)C[C@H]2N(C(=O)Nc2ccccc2)C1
IC50 [1]: 379 nM | IC50 [2]: 71 nM | IC50 [3]: 90 nM

O=C([C@@H]1C=C2c3cccc4[nH]cc(c34)C[C@H]2N(C(=O)Nc2ccccc2)C1)N1C=CCCC1
IC50 [1]: 12 nM | IC50 [2]: 4 nM | IC50 [3]: 2 nM

O=C([C@@H]1C=C2c3cccc4[nH]cc(c34)C[C@H]2N(C(=O)Cc2ccccc2)C1)N1CCCC1
IC50 [1]: 427 nM | IC50 [2]: 170 nM

COc1ccc(NC(=O)N2C[C@H](C(=O)N3CCCC3)C=C3c4cccc5[nH]cc(c45)C[C@H]32)cc1
IC50 [1]: 393 nM | IC50 [2]: 89 nM

O=C([C@@H]1C=C2c3cccc4[nH]cc(c34)C[C@H]2N(C(=O)Nc2ccccc2)C1)N1CC=CC1
IC50 [1]: 17 nM | IC50 [2]: 3 nM | IC50 [3]: 3 nM

O=C([C@@H]1C=C2c3cccc4[nH]cc(c34)C[C@H]2N(C(=O)c2ccccc2)C1)N1CCCC1
IC50 [1]: > 10000 nM | IC50 [2]: 6120 nM

O=C([C@@H]1C=C2c3cccc4[nH]cc(c34)C[C@H]2N(C(=O)Nc2cc[nH]c2)C1)N1CCCC1
IC50 [1]: > 10000 nM | IC50 [2]: > 10000 nM

O=C([C@@H]1C=C2c3cccc4[nH]cc(c34)C[C@H]2N(C(=O)Nc2cccc(F)c2)C1)N1CCCC1
IC50 [1]: 4 nM | IC50 [2]: 3 nM | IC50 [3]: 2 nM

CN(C)C(=O)[C@@H]1C=C2c3cccc4[nH]cc(c34)C[C@H]2N(C(=O)Nc2ccccc2)C1
IC50 [1]: 28 nM | IC50 [2]: 10 nM | IC50 [3]: 10 nM

O=C([C@@H]1C=C2c3cccc4[nH]cc(c34)C[C@H]2N(C(=O)Nc2ccccc2)C1)N1CC[C@H](O)C1
IC50 [1]: 47 nM | IC50 [2]: 12 nM | IC50 [3]: 19 nM

O=C([C@@H]1C=C2c3cccc4[nH]cc(c34)C[C@H]2N(C(=O)Nc2ccsc2)C1)N1CCCC1
IC50 [1]: 26 nM | IC50 [2]: 7 nM | IC50 [3]: 11 nM

O=C([C@@H]1C=C2c3cccc4[nH]cc(c34)C[C@H]2N(C(=O)Nc2cccs2)C1)N1CCCC1
IC50 [1]: 37 nM | IC50 [2]: 8 nM | IC50 [3]: 10 nM

O=C([C@@H]1C=C2c3cccc4[nH]cc(c34)C[C@H]2N(C(=O)NC2CCCCCC2)C1)N1CCCC1
IC50 [1]: 28 nM | IC50 [2]: 14 nM | IC50 [3]: 16 nM

CC1CN(C(=O)[C@@H]2C=C3c4cccc5[nH]cc(c45)C[C@H]3N(C(=O)Nc3ccccc3)C2)CC(C)O1 (some centres not stated)
IC50 [1]: 1160 nM | IC50 [2]: 216 nM

CCN(CC)C(=O)[C@@H]1C=C2c3cccc4[nH]cc(c34)C[C@H]2N(C(=O)Nc2ccccc2)C1
IC50 [1]: 51 nM

CN(C)Cc1ccccc1NC(=O)N1C[C@H](C(=O)N2CCCC2)C=C2c3cccc4[nH]cc(c34)C[C@H]21
IC50 [2]: > 10000 nM

O=C([C@@H]1C=C2c3cccc4[nH]cc(c34)C[C@H]2N(C(=O)Nc2ccccc2)C1)N1CCNCC1
IC50 [1]: 1010 nM | IC50 [2]: 457 nM | IC50 [3]: 1730 nM

COc1ccccc1NC(=O)N1C[C@H](C(=O)N2CCCC2)C=C2c3cccc4[nH]cc(c34)C[C@H]21
IC50 [1]: 523 nM | IC50 [2]: 60 nM

CN(C)Cc1cccc(NC(=O)N2C[C@H](C(=O)N3CCCC3)C=C3c4cccc5[nH]cc(c45)C[C@H]32)c1
IC50 [2]: 6200 nM

O=C([C@@H]1C=C2c3cccc4[nH]cc(c34)C[C@H]2N(C(=O)NCc2ccccc2)C1)N1CCCC1
IC50 [1]: 2200 nM | IC50 [2]: 2200 nM

O=C([C@@H]1C=C2c3cccc4[nH]cc(c34)C[C@H]2N(C(=O)NC2CCCCC2)C1)N1CCCC1
IC50 [1]: 24 nM | IC50 [2]: 11 nM | IC50 [3]: 31 nM

CC(C)OC(=O)Cn1cc2c3c(cccc31)C1=C[C@@H](C(=O)N3CCCC3)CN(C(=O)Nc3ccccc3)[C@@H]1C2
IC50 [3]: 53 nM

O=C([C@@H]1C=C2c3cccc4[nH]cc(c34)C[C@H]2N(C(=O)NC2CCC(O)CC2)C1)N1CCCC1 (some centres not stated)
IC50 [1]: > 10000 nM | IC50 [2]: 9480 nM

O=C1CN(C(=O)[C@@H]2C=C3c4cccc5[nH]cc(c45)C[C@H]3N(C(=O)Nc3ccccc3)C2)CCN1
IC50 [1]: 255 nM | IC50 [2]: 74 nM

O=C([C@@H]1C=C2c3cccc4[nH]cc(c34)C[C@H]2N(C(=O)Nc2ccccc2)C1)N1CCOCC1
IC50 [1]: 22 nM | IC50 [3]: 12 nM

CN1CCN(C(=O)[C@@H]2C=C3c4cccc5[nH]cc(c45)C[C@H]3N(C(=O)Nc3ccccc3)C2)CC1
IC50 [1]: 131 nM | IC50 [2]: 83 nM | IC50 [3]: 112 nM

NC(=O)[C@@H]1C=C2c3cccc4[nH]cc(c34)C[C@H]2N(C(=O)Nc2ccccc2)C1
IC50 [1]: > 10000 nM

O=C([C@@H]1C=C2c3cccc4[nH]cc(c34)C[C@H]2N(C(=O)Nc2ccc(F)cc2)C1)N1CCCC1
IC50 [1]: 7 nM | IC50 [2]: 4 nM | IC50 [3]: 4 nM
